{"source": "ChEMBL document CHEMBL5723582", "about": "“Data for DCP probe T-10430” (2024)", "details_in_all_cases": "Compound concentration 1.0 uM", "key": {"[1]": {"target": "Adenosine receptor A3 (Homo sapiens) (UniProt P0DMS8)", "assay": "RLU of ADORA3 at 1.0 µM in the […] PRESTO-Tango GPCRome screen"}, "[2]": {"target": "Probable G-protein coupled receptor 27 (Homo sapiens) (UniProt Q9NS67)", "assay": "RLU of GPR27 at 1.0 µM in the […] PRESTO-Tango GPCRome screen"}, "[3]": {"target": "D(3) dopamine receptor (Homo sapiens) (UniProt P35462)", "sequence (P35462 whole entry)": "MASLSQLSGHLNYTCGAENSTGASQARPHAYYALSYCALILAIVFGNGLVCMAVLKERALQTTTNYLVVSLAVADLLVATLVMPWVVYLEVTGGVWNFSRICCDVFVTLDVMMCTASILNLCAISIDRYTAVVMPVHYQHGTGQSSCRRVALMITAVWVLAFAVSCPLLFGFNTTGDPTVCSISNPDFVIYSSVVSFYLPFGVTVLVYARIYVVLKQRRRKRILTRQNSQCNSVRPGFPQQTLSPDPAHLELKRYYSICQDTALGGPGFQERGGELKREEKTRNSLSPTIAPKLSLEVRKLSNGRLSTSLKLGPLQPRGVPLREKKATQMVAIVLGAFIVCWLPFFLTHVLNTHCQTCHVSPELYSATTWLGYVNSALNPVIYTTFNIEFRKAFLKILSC", "assay": "RLU of DRD3 at 1.0 µM in the […] PRESTO-Tango GPCRome screen"}, "[4]": {"target": "Kappa-type opioid receptor (Homo sapiens) (UniProt P41145)", "assay": "RLU of OPRK1 at 1.0 µM in the […] PRESTO-Tango GPCRome screen"}, "[5]": {"target": "Sphingosine 1-phosphate receptor 5 (Homo sapiens) (UniProt Q9H228)", "sequence (Q9H228 whole entry)": "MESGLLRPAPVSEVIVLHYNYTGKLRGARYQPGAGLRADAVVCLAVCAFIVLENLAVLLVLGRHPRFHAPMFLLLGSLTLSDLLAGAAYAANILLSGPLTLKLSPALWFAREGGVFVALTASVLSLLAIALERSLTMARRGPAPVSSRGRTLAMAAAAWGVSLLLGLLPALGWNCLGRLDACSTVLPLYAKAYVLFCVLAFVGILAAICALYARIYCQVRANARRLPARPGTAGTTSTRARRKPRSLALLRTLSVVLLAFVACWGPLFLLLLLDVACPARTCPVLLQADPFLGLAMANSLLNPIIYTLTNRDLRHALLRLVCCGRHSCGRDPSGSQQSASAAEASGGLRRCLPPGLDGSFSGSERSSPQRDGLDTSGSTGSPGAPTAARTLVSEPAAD", "assay": "RLU of S1PR5 at 1.0 µM in the […] PRESTO-Tango GPCRome screen"}, "[6]": {"target": "Relaxin-3 receptor 1 (Homo sapiens) (UniProt Q9NSD7)", "sequence (Q9NSD7 whole entry)": "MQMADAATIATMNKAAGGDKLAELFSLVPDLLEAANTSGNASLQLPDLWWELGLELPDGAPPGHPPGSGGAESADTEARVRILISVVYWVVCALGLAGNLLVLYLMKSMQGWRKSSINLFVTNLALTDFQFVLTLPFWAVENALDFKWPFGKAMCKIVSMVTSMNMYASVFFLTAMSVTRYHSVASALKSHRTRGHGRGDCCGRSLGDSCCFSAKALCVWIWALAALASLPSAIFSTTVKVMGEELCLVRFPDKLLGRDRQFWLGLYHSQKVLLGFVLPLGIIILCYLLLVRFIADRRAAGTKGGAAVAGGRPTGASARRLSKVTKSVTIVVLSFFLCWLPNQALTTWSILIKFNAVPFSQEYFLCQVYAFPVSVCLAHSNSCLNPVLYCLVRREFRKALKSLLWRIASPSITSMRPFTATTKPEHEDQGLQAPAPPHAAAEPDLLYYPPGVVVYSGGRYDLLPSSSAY", "assay": "RLU of RXFP3 at 1.0 µM in the […] PRESTO-Tango GPCRome screen"}, "[7]": {"target": "Histamine H4 receptor (Homo sapiens) (UniProt Q9H3N8)", "sequence (Q9H3N8 whole entry)": "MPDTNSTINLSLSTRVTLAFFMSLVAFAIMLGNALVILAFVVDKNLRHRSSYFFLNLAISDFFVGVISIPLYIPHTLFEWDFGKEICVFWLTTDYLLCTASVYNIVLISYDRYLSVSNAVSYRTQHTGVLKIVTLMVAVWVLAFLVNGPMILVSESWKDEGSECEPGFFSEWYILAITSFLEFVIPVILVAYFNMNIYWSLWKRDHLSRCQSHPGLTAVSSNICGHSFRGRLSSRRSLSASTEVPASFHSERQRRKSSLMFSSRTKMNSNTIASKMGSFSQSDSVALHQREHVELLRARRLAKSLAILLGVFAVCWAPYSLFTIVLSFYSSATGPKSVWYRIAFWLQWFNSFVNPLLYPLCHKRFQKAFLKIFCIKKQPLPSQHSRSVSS", "assay": "RLU of HRH4 at 1.0 µM in the Aequorin PRESTO-Tango GPCRome screen"}, "[8]": {"target": "Probable G-protein coupled receptor 149 (Homo sapiens) (UniProt Q86SP6)", "assay": "RLU of GPR149 at 1.0 µM in the […] PRESTO-Tango GPCRome screen"}, "[9]": {"target": "Mas-related G-protein coupled receptor member D (Homo sapiens) (UniProt Q8TDS7)", "assay": "RLU of MRGPRD at 1.0 µM in the […] PRESTO-Tango GPCRome screen"}, "[10]": {"target": "Neuromedin-U receptor 2 (Homo sapiens) (UniProt Q9GZQ4)", "assay": "RLU of NMUR2 at 1.0 µM in the […] PRESTO-Tango GPCRome screen"}, "[11]": {"target": "Muscarinic acetylcholine receptor M3 (Homo sapiens) (UniProt P20309)", "sequence (P20309 whole entry, looked up)": "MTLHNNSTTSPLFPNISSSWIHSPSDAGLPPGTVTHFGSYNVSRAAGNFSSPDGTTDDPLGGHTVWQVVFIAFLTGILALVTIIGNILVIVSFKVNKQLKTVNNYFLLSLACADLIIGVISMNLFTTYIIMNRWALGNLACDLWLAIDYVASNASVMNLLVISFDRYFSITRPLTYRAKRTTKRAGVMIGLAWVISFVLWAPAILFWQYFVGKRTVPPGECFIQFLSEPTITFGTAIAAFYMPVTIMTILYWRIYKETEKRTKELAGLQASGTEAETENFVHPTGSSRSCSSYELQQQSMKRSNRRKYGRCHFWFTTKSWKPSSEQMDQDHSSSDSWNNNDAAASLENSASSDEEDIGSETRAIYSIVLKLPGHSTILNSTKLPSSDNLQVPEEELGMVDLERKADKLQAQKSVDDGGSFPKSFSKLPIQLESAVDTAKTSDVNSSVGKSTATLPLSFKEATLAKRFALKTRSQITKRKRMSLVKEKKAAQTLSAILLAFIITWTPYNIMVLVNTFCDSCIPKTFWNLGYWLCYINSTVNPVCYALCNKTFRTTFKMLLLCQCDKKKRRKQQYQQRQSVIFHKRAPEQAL", "assay": "RLU of CHRM3 at 1.0 µM in the […] PRESTO-Tango GPCRome screen"}, "[12]": {"target": "Opsin-5 (Homo sapiens) (UniProt Q6U736)", "assay": "RLU of OPN5 at 1.0 µM in the […] PRESTO-Tango GPCRome screen"}, "[13]": {"target": "Prostaglandin E2 receptor EP2 subtype (Homo sapiens) (UniProt P43116)", "assay": "RLU of PTGER2 at 1.0 µM in the […] PRESTO-Tango GPCRome screen"}, "[14]": {"target": "Platelet-activating factor receptor (Homo sapiens) (UniProt P25105)", "assay": "RLU of PTAFR at 1.0 µM in the […] PRESTO-Tango GPCRome screen"}, "[15]": {"target": "Somatostatin receptor type 4 (Homo sapiens) (UniProt P31391)", "sequence (P31391 whole entry)": "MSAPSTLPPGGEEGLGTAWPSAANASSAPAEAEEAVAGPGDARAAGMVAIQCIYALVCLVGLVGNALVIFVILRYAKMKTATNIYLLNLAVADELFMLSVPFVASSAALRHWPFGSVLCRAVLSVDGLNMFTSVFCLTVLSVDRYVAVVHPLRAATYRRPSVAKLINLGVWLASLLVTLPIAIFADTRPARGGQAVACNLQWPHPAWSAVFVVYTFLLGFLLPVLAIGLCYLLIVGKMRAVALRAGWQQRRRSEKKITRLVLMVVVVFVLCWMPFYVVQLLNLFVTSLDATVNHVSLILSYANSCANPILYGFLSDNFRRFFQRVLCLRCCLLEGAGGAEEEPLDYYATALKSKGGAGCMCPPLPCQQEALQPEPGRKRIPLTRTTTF", "assay": "RLU of SSTR4 at 1.0 µM in the […] PRESTO-Tango GPCRome screen"}, "[16]": {"target": "C-X-C chemokine receptor type 2 (Homo sapiens) (UniProt P25025)", "assay": "RLU of CXCR2 at 1.0 µM in the […] PRESTO-Tango GPCRome screen"}, "[17]": {"target": "Muscarinic acetylcholine receptor M5 (Homo sapiens) (UniProt P08912)", "sequence (P08912 whole entry)": "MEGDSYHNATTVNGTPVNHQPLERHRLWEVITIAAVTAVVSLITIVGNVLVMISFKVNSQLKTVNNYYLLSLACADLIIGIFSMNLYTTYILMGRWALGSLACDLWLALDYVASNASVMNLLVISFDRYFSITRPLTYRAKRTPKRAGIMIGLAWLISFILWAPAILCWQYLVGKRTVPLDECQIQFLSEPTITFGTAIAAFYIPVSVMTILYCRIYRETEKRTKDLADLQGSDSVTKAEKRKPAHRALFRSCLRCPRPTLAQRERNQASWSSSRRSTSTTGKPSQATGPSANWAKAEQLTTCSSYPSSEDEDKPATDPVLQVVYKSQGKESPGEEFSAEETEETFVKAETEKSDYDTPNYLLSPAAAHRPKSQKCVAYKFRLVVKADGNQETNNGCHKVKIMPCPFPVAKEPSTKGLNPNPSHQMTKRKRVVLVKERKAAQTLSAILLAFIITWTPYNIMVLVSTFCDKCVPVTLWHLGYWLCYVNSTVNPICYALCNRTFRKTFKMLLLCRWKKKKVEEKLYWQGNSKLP", "assay": "RLU of CHRM5 at 1.0 µM in the […] PRESTO-Tango GPCRome screen"}, "[18]": {"target": "Glucagon receptor (Homo sapiens) (UniProt P47871)", "assay": "RLU of GCGR at 1.0 µM in the […] PRESTO-Tango GPCRome screen"}, "[19]": {"target": "Cannabinoid receptor 2 (Homo sapiens) (UniProt P34972)", "sequence (P34972 whole entry)": "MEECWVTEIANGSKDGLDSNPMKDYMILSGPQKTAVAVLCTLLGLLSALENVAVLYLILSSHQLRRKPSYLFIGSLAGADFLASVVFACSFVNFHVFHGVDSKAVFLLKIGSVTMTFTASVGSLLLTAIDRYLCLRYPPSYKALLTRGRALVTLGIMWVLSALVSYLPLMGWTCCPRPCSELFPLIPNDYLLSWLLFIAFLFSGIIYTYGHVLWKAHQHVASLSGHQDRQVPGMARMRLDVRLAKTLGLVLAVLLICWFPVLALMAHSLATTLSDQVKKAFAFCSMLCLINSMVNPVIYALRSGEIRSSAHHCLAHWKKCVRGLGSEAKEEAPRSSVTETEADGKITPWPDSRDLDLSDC", "assay": "RLU of CNR2 at 1.0 µM in the […] PRESTO-Tango GPCRome screen"}, "[20]": {"target": "Gamma-aminobutyric acid type B receptor subunit 1 (Homo sapiens) (UniProt Q9UBS5)", "assay": "RLU of GABBR1 at 1.0 µM in the […] PRESTO-Tango GPCRome screen"}, "[21]": {"target": "5-hydroxytryptamine receptor 1E (Homo sapiens) (UniProt P28566)", "assay": "RLU of HTR1E at 1.0 µM in the […] PRESTO-Tango GPCRome screen"}, "[22]": {"target": "Gastric inhibitory polypeptide receptor (Homo sapiens) (UniProt P48546)", "assay": "RLU of GIPR at 1.0 µM in the […] PRESTO-Tango GPCRome screen"}, "[23]": {"target": "Melanin-concentrating hormone receptor 1 (Homo sapiens) (UniProt Q99705)", "assay": "RLU of MCHR1 at 1.0 µM in the […] PRESTO-Tango GPCRome screen"}, "[24]": {"target": "G-protein coupled receptor 3 (Homo sapiens) (UniProt P46089)", "sequence (P46089 whole entry)": "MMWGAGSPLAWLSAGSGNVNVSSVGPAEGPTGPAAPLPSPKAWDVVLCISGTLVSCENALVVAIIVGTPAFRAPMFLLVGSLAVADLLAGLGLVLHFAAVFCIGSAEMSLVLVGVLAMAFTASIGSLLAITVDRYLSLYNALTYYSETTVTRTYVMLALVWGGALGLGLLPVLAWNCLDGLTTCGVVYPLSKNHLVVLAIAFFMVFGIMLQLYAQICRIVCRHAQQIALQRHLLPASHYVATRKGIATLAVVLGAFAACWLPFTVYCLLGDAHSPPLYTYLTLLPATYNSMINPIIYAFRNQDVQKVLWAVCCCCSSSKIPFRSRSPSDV", "assay": "RLU of GPR3 at 1.0 µM in the […] PRESTO-Tango GPCRome screen"}, "[25]": {"target": "Neuropeptide S receptor (Homo sapiens) (UniProt Q6W5P4)", "assay": "RLU of NPS at 1.0 µM in the […] PRESTO-Tango GPCRome screen"}, "[26]": {"target": "Alpha-1D adrenergic receptor (Homo sapiens) (UniProt P25100)", "sequence (P25100 whole entry)": "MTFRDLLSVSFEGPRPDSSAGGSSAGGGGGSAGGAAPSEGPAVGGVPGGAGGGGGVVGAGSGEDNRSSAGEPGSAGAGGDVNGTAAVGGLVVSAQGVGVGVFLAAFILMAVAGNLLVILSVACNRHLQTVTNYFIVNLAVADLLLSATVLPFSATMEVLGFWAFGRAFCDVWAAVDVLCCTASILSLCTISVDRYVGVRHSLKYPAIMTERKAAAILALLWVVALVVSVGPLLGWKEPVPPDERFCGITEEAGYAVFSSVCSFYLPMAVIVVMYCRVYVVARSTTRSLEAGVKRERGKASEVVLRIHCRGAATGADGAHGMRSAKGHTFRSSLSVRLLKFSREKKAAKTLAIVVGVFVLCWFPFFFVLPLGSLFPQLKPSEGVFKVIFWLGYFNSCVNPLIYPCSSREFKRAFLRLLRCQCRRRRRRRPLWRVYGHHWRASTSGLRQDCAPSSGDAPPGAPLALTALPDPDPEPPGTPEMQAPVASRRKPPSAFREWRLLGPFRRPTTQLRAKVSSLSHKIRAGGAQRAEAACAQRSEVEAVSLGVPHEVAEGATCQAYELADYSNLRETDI", "assay": "RLU of ADRA1D at 1.0 µM in the […] PRESTO-Tango GPCRome screen"}, "[27]": {"target": "C-C chemokine receptor type 4 (Homo sapiens) (UniProt P51679)", "assay": "RLU of CCR4 at 1.0 µM in the […] PRESTO-Tango GPCRome screen"}, "[28]": {"target": "Oxytocin receptor (Homo sapiens) (UniProt P30559)", "sequence (P30559 whole entry)": "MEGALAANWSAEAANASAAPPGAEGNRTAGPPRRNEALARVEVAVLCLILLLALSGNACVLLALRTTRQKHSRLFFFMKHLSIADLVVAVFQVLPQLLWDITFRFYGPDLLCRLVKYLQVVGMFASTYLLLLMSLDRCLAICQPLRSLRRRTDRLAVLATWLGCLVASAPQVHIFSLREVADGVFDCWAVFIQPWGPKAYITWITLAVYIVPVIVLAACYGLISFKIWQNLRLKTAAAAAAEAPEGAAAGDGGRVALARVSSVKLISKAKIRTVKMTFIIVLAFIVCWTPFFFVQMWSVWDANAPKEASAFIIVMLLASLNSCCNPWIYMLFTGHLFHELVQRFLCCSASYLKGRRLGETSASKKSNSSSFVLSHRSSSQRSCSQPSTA", "assay": "RLU of OXTR at 1.0 µM in the […] PRESTO-Tango GPCRome screen"}, "[29]": {"target": "G-protein coupled receptor 62 (Homo sapiens) (UniProt Q9BZJ7)", "assay": "RLU of GPR62 at 1.0 µM in the […] PRESTO-Tango GPCRome screen"}, "[30]": {"target": "Neuropeptide Y receptor type 1 (Homo sapiens) (UniProt P25929)", "assay": "RLU of NPY1R at 1.0 µM in the […] PRESTO-Tango GPCRome screen"}, "[31]": {"target": "G-protein coupled receptor 65 (Homo sapiens) (UniProt Q8IYL9)", "assay": "RLU of GPR65 at 1.0 µM in the […] PRESTO-Tango GPCRome screen"}, "[32]": {"target": "Alpha-1B adrenergic receptor (Homo sapiens) (UniProt P35368)", "assay": "RLU of ADRA1B at 1.0 µM in the […] PRESTO-Tango GPCRome screen"}, "[33]": {"target": "Substance-P receptor (Homo sapiens) (UniProt P25103)", "assay": "RLU of TACR1 at 1.0 µM in the […] PRESTO-Tango GPCRome screen"}, "[34]": {"target": "G-protein coupled receptor 26 (Homo sapiens) (UniProt Q8NDV2)", "assay": "RLU of GPR26 at 1.0 µM in the […] PRESTO-Tango GPCRome screen"}, "[35]": {"target": "P2Y purinoceptor 13 (Homo sapiens) (UniProt Q9BPV8)", "assay": "RLU of P2RY13 at 1.0 µM in the […] PRESTO-Tango GPCRome screen"}, "[36]": {"target": "P2Y purinoceptor 12 (Homo sapiens) (UniProt Q9H244)", "assay": "RLU of P2RY12 at 1.0 µM in the […] PRESTO-Tango GPCRome screen"}}, "data": [{"compound": "CCCCC(=O)N1CC2(C1)CN(c1ccccc1-c1nnn[nH]1)C2", "values": [{"measurement": "RLU", "setting": "[1]", "value": 506}, {"measurement": "RLU", "setting": "[2]", "value": -2080}, {"measurement": "RLU", "setting": "[3]", "value": 1160}, {"measurement": "RLU", "setting": "[4]", "value": 156}, {"measurement": "RLU", "setting": "[5]", "value": 2920}, {"measurement": "RLU", "setting": "[6]", "value": 6610}, {"measurement": "RLU", "setting": "[7]", "value": -637}, {"measurement": "RLU", "setting": "[8]", "value": -2140}, {"measurement": "RLU", "setting": "[9]", "value": -630}, {"measurement": "RLU", "setting": "[10]", "value": 710}, {"measurement": "RLU", "setting": "[11]", "value": 6260}, {"measurement": "RLU", "setting": "[12]", "value": 4000}, {"measurement": "RLU", "setting": "[13]", "value": 613}, {"measurement": "RLU", "setting": "[14]", "value": 82.9}, {"measurement": "RLU", "setting": "[15]", "value": 120}, {"measurement": "RLU", "setting": "[16]", "value": -473}, {"measurement": "RLU", "setting": "[17]", "value": 7390}, {"measurement": "RLU", "setting": "[18]", "value": 1330}, {"measurement": "RLU", "setting": "[19]", "value": 4360}, {"measurement": "RLU", "setting": "[20]", "value": 3390}, {"measurement": "RLU", "setting": "[21]", "value": -638}, {"measurement": "RLU", "setting": "[22]", "value": -1500}, {"measurement": "RLU", "setting": "[23]", "value": 5930}, {"measurement": "RLU", "setting": "[24]", "value": -1780}, {"measurement": "RLU", "setting": "[25]", "value": 3790}, {"measurement": "RLU", "setting": "[26]", "value": 2940}, {"measurement": "RLU", "setting": "[27]", "value": 6410}, {"measurement": "RLU", "setting": "[28]", "value": -479}, {"measurement": "RLU", "setting": "[29]", "value": 477000}, {"measurement": "RLU", "setting": "[30]", "value": -114}, {"measurement": "RLU", "setting": "[31]", "value": -1350}, {"measurement": "RLU", "setting": "[32]", "value": -2730}, {"measurement": "RLU", "setting": "[33]", "value": -4720}, {"measurement": "RLU", "setting": "[34]", "value": -187}, {"measurement": "RLU", "setting": "[35]", "value": 10100}, {"measurement": "RLU", "setting": "[36]", "value": -34.4}]}]}
